Laboratory results from patent US20230108004A1, “TREATMENT OF EPILEPSY WITH PLINABULIN OR HALIMIDE OR DIKETOPIPERAZINE DERIVATIVES” (Katholieke Universiteit Leuven, priority 2017, published 2023).

Legend:
[1] = tested on: PTZ-induced seizure behavior in zebrafish larvae; experiment: Zebrafish pentylenetetrazole (PTZ) seizure model, behavioral analysis; type: in vivo, zebrafish (Danio rerio); settings: 2 hours incubation; for antiseizure activity of the separated enantiomers: S-enantiomer only significant at 200 μg/mL (p<0.01)
Procedure: Experiments were performed as described in Copmans et al. (2018) Neurochem. Int. 112, 124-133; Afrikanova et al (2013) PLoS One 8, e54166 and Orellana-Paucar et al. (2012) Epilepsy Behav 24, 14-22. In brief, a single 7 dpf larva was placed in each well of a 96-well plate and treated with either VHC (1% DMSO) or test compound (1% DMSO) in a 100 μL volume. Larvae were incubated in dark for 2 hours at 28° C., whereafter 100 μL of either VHC (embryo medium) or 40 mM PTZ (20 mM working concentration) was added to each well. Next, within 5 minutes the 96-well plate was placed in an automated tracking device (ZebraBox Viewpoint, France) and larval behavior was video recorded for 30 minutes. The complete procedure was performed in dark conditions using infrared light. Total locomotor activity was recorded by ZebraLab software (Viewpoint, France) and expressed in actinteg units, which is the sum of pixel changes detected during the defined time interval (5 minutes). Larval behavior was depicted as mean actinteg units per 5 minutes during the 30 minute recording period and over consecutive time intervals. Data are expressed as mean±SD for single experiments with regards to screening and as mean±SEM for single experiments and for independent experiments of which the means or data are pooled.
In the first secondary screen three replicate wells were used per sample (100 μg/mL) tested and each experimental plate contained 12 internal control wells. In the second secondary screen six replicate wells were used per sample and concentration tested (100, 33, and 11 μg/mL), again 12 internal control wells were used per experimental plate.

[2] = tested on: PTZ-induced epileptiform discharges in zebrafish larvae; experiment: Zebrafish PTZ seizure model, electrophysiology (local field potential recordings from the optic tectum); type: in vivo, zebrafish (Danio rerio); settings: 2 hours, 10 min recording
Procedure: Non-invasive LFP recordings were measured from the midbrain (optic tectum) of 7 dpf zebrafish larvae pre-incubated with VHC only, PTZ only, compound and VHC, or compound and PTZ [Zdebik, et al. (2013) PLoS One 8, 6e10. Experiments were performed as described in Copmans, et al. (2018) Neurochem. Int. 112, 124-133 and Copmans et al. (2018) ACS chemical neuroscience.]. In brief, larvae were incubated for approximately 2 hours with VHC (1% DMSO) or test compound (1% DMSO) in a 100 μL volume. After incubation, an equal volume of VHC (embryo medium) or 40 mM PTZ (20 mM working concentration) was added to the well for 15 minutes prior to recording. These steps occurred at 28° C., while further manipulation and electrophysiological recordings occurred at room temperature (±21° C.). The larva was embedded in 2% low melting point agarose (Invitrogen) and the signal electrode (an electrode inside a soda-glass pipet (1412227, Hilgenberg) pulled with a DMZ Universal Puller (Zeitz, Germany), diameter±20 microns, containing artificial cerebrospinal fluid (ACSF: 124 mM NaCl, 10 mM glucose, 2 mM KCl, 2 mM MgSO4, 2 mM CaCl2), 1.25 mM KH2PO4, and 26 mM NaHCO3, 300-310 mOsmols)) was positioned on the skin covering the optic tectum. A differential extracellular amplifier (DAGAN, USA) amplified the voltage difference between the signal (measured by the signal electrode) and the reference electrode. The differential signal was band pass filtered at 0.3-300 Hz and digitized at 2 kHz via a PCI-6251 interface (National instruments, UK) using WinEDR (John Dempster, University of Strathclyde, UK). A grounding electrode grounded the electrical system. All electrodes were connected with ACSF. Each recording lasted 600 seconds. Manual analysis was completed by quantification of the number, cumulative duration, and mean duration of epileptiform-like events with Clampfit 10.2 software (Molecular Devices Corporation, USA). An electrical discharge was considered epileptiform if it was a poly-spiking event comprising at least 3 spikes with a minimum amplitude of three times the baseline amplitude and a duration of at least 100 milliseconds. Data are expressed as mean±SD.

[3] = tested on: EKP-induced seizure behavior in zebrafish larvae; experiment: Zebrafish ethyl ketopentenoate (EKP) seizure model, behavioral analysis; type: in vivo, zebrafish (Danio rerio)
Procedure: Experiments were performed as described in Zhang et al. (2017) Sci. Rep. 7, 7195. In brief, a single 7 dpf larva was placed in each well of a 96-well plate and treated with either VHC (1% DMSO) or test compound (1% DMSO) in a 100 μL volume. Larvae were incubated in dark for 2 hours at 28° C., whereafter 100 μL of either VHC (1% DMSO) or 1 mM EKP (1% DMSO, 500 μM working concentration) was added to each well. Next, within 5 minutes the 96-well plate was placed in an automated tracking device (ZebraBox Viewpoint, France) and larval behavior was video recorded for 30 minutes. The complete procedure was performed in dark conditions using infrared light. Total locomotor activity was recorded by ZebraLab software (Viewpoint, France) and expressed in actinteg units, which is the sum of pixel changes detected during the defined time interval (5 minutes). Larval behavior was depicted as mean actinteg units per 5 minutes during the 30 minute recording period and over consecutive time intervals. Data are pooled from independent experiments and expressed as mean±SEM.

[4] = tested on: EKP-induced epileptiform discharges in zebrafish larvae; experiment: Zebrafish EKP seizure model, electrophysiology (local field potential recordings); type: in vivo, zebrafish (Danio rerio); settings: 12.5 μg/mL, 2 hours; 10 min recording; p≤0.05
Procedure: Non-invasive LFP recordings were measured from the midbrain (optic tectum) of 7 dpf zebrafish larvae pre-incubated with VHC only, EKP only, compound and VHC, or compound and EKP. Larvae were incubated for approximately 2 hours with VHC (1% DMSO) or test compound (1% DMSO). After incubation, VHC (1% DMSO) or 1 mM EKP (1% DMSO, 500 μM working concentration) was added to the well for 15 minutes prior to recording. These steps occurred at 28° C., while further manipulation and electrophysiological recordings occurred at room temperature (±21° C.). The larva was embedded in 2% low melting point agarose (Invitrogen) and the signal electrode was positioned on the skin covering the optic tectum and electrophysiological recordings (room temperature) were performed as described above for the zebrafish PTZ seizure model and as described in Zhang et al. (2017) Sci. Rep. 7, 7195. Manual analysis was completed by quantification of the number, cumulative duration, and mean duration of epileptiform-like events with Clampfit 10.2 software (Molecular Devices Corporation, USA). An electrical discharge was considered epileptiform if it was a poly-spiking event comprising at least 3 spikes with a minimum amplitude of three times the baseline amplitude and a duration of at least 100 milliseconds. Data are expressed as mean±SD.

[5] = tested on: drug-resistant psychomotor seizures induced by corneal electrical stimulation; experiment: Mouse 6-Hz (44 mA) psychomotor seizure model; type: in vivo, Male NMRI mice; settings: 30 min before stimulation, VHC 28 s
Procedure: Experiments were performed as previously described. In brief, NMRI mice (average weight 32 g, range 28-36 g) were randomly divided into control and treatment groups (n=6-11). 50 μL (injection volume was adjusted to the individual weight) of VHC (PEG200:DMSO 1:1) or treatment (an ASD or test compound dissolved in VHC) was i.p. injected in mice and after 30 minutes psychomotor seizures were induced by low frequency, long duration corneal electrical stimulation (6 Hz, 0.2 ms rectangular pulse width, 3 s duration, 44 mA) using an ECT Unit 5780 (Ugo Basile, Comerio, Italy). Mice were manually restrained and a drop of ocular anesthetic (0.5% lidocaine) was applied to the corneas before stimulation. Following electrical current stimulation, the mouse was released in a transparent cage for behavioral observation, which was video-recorded. […] In addition, facial and mouth jerking as well as head nodding were observed occasionally. Seizure durations were measured during the experiment by experienced researchers, familiar with the different seizure behaviors. In addition, seizure durations were determined by blinded video analysis to confirm or correct the initial observations. Data are expressed as mean±SD.

[6] = tested on: zebrafish larvae; experiment: Zebrafish toxicity evaluation: maximum tolerated concentration (MTC); type: in vivo, zebrafish (Danio rerio); settings: highest concentration without death, toxicity or locomotor impairment
Procedure: Maximum tolerated concentration (MTC) was determined prior to further experiments and used as the highest test concentration. Experiments were performed as described in Copmans et al. (2018) Neurochem. Int. 112, 124-133. before. In brief, the MTC was investigated by exposing 12 larvae of 6 or 7 dpf to a range of concentrations in a 100 μL volume during 18 hours. The following parameters were investigated after 2 and 18 hours of exposure: touch response, morphology, posture, edema, signs of necrosis, swim bladder, and heartbeat. […] In case no MTC was reached, the highest soluble concentration was used.
Maximum tolerated concentration (MTC) was determined prior to further experiments and used as the highest test concentration. Experiments were performed as described in Copmans et al. (2018). Neurochem. Int. 112, 124-133. In brief, the MTC was investigated by exposing 12 larvae of 7 dpf to a range of concentrations in a 100 μL volume during 18 hours. The following parameters were investigated after 2 and 18 hours of exposure: touch response, morphology, posture, edema, signs of necrosis, swim bladder, and heartbeat.

## CC(C)(C)c1[nH]cnc1/C=c1\[nH]c(=O)/c(=C/c2ccccc2)[nH]c1=O [plinabulin]
[1]; 1.56-12.5 μg/mL, 30 min recording, p≤0.01 (1.56), p≤0.001 (3.13, 6.25, 12.5) (FIG. 7A)
  PTZ-induced seizure behavior: significantly lowered
[1]; 12.5 and 3.13 μg/mL, 30 min recording period, p≤0.001 (FIG. 4C)
  PTZ-induced seizure behavior: significantly lowered
[2]; 12.5 μg/mL
  number of PTZ-induced epileptiform events: non-significantly lowered
  percentage of larvae with PTZ-induced epileptiform activity: non-significantly lowered
[2]; 12.5 μg/mL, p≤0.05
  cumulative duration of PTZ-induced epileptiform events: significantly lowered
[3]; 3.13, 6.25 and 12.5 μg/mL, compound+VHC, zebrafish EKP seizure model
  normal swimming behavior in comparison to VHC-treated larvae: significantly lowered
[3]; all concentrations tested (0.78-12.5 μg/mL), 2 hours incubation, 30 min recording (FIG. 7B)
  EKP-induced seizure behavior: significantly lowered
[4]
  cumulative duration of EKP-induced epileptiform events: significantly lowered
  lowering of the percentage of larvae with EKP-induced epileptiform activity: 40%
  number of EKP-induced epileptiform events: significantly lowered
[5]; 5 mg/kg i.p., not significant
  mean seizure duration: 21 s
[5]; 10 mg/kg i.p., p<0.05
  mean seizure duration: 12.5 s
[5]; 20 mg/kg i.p., p<0.01
  mean seizure duration: 15 s
[5]; 40 mg/kg i.p., p<0.05
  mean seizure duration: 15 s

## C=CC(C)(C)c1nc[nH]c1/C=C1\NC(=O)C(Cc2ccccc2)NC1=O (stereo not drawn) [halimide]
[6]
  maximum tolerated concentration (MTC): 200 µg/mL
[1]; halimide at its MTC, 30 min recording period, p≤0.05
  PTZ-induced seizure behavior: significantly lowered
[2]; MTC (200 μg/mL), p≤0.001
  cumulative duration of PTZ-induced epileptiform events: significantly lowered
  lowering of the percentage of larvae with PTZ-induced epileptiform activity: ~60%
  number of PTZ-induced epileptiform events: significantly lowered

## C=CC(C)(C)c1[nH]cnc1C=C1NC(=O)C(Cc2ccccc2)NC1=O (single isomer, unassigned) [R-enantiomer]
[1]
  antiseizure activity of the separated enantiomers: no significant effect

## C=CC(C)(C)c1nc[nH]c1/C=C1\NC(=O)C(Cc2ccccc2)NC1=O (single isomer, unassigned) [S-enantiomer]
[1]
  antiseizure activity of the separated enantiomers: active
